Assay results: PubChem BioAssay AID1963842 (Molecular Pharmacology Branch, DTP, NCI, 2024)
pIC50: −log10 of the molar value.

Tested on: 677734-321-R-J1-PDC complex spheroid viability
Test: Anticancer human tumor 677734-321-R-J1-PDC patient-derived soft tissue sarcoma cell line growth inhibition [POLQ]
Conditions: for pIC50: curve of first compound; for viability, T/C: stronger effect = lower value
Procedure, shortened: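 Complex spheroid viability model combining PDC tumour cells with endothelial (HUVEC) and MSC stromal cells. Novobiocin, ART-558 or RP6685 were tested singly and in combination with standard and investigational anticancer drugs. Each was titrated in half-log steps from near clinical Cmax, or from 10 microM where Cmax was unknown.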

[1] = second compound 0.0316 µM, first compound 0.0316 µM
[2] = second compound 0.0316 µM, first compound 0.1 µM
[3] = second compound 0.0316 µM, first compound 0.316 µM
[4] = second compound 0.0316 µM, first compound 1 µM
[5] = second compound 0.0316 µM, first compound 3.16 µM
[6] = second compound 0.0316 µM, first compound 10 µM
[7] = second compound 0.1 µM, first compound 0.0316 µM
[8] = second compound 0.1 µM, first compound 0.1 µM
[9] = second compound 0.1 µM, first compound 0.316 µM
[10] = second compound 0.1 µM, first compound 1 µM
[11] = second compound 0.1 µM, first compound 3.16 µM
[12] = second compound 0.1 µM, first compound 10 µM
[13] = second compound 0.316 µM, first compound 0.0316 µM
[14] = second compound 0.316 µM, first compound 0.1 µM
[15] = second compound 0.316 µM, first compound 0.316 µM
[16] = second compound 0.316 µM, first compound 1 µM
[17] = second compound 0.316 µM, first compound 3.16 µM
[18] = second compound 0.316 µM, first compound 10 µM
[19] = second compound 1 µM, first compound 0.0316 µM
[20] = second compound 1 µM, first compound 0.1 µM
[21] = second compound 1 µM, first compound 0.316 µM
[22] = second compound 1 µM, first compound 1 µM
[23] = second compound 1 µM, first compound 3.16 µM
[24] = second compound 1 µM, first compound 10 µM
[25] = second compound 3.16 µM, first compound 0.0316 µM
[26] = second compound 3.16 µM, first compound 0.1 µM
[27] = second compound 3.16 µM, first compound 0.316 µM
[28] = second compound 3.16 µM, first compound 1 µM
[29] = second compound 3.16 µM, first compound 3.16 µM
[30] = second compound 3.16 µM, first compound 10 µM
[31] = second compound 10 µM, first compound 0.0316 µM
[32] = second compound 10 µM, first compound 0.1 µM
[33] = second compound 10 µM, first compound 0.316 µM
[34] = second compound 10 µM, first compound 1 µM
[35] = second compound 10 µM, first compound 3.16 µM
[36] = second compound 10 µM, first compound 10 µM
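Note: spheroids exposed to compounds for one week.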
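Throughout, for viability, T/C: 100% = vehicle DMSO treated spheroids.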

COc1cc(C2c3cc4c(cc3C(OC3OC5COC(C)OC5C(O)C3O)C3COC(=O)C23)OCO4)cc(OC)c1O (stereo unspecified) + Nc1ccc(C#CCN(C(=O)Cc2ncc(C(F)(F)F)cc2C(F)(F)F)c2ccc(F)cc2)nn1
pIC50 (second compound 0.0316 µM): 6.38
pIC50 (second compound 0.1 µM): 6.32
pIC50 (second compound 0.316 µM): 6.50
pIC50 (second compound 1 µM): 6.43
pIC50 (second compound 3.16 µM): 6.47
pIC50 (second compound 10 µM): 6.66
viability, T/C [1]: 98.2%
viability, T/C [2]: 93.8%
viability, T/C [3]: 47.1%
viability, T/C [4]: 37.2%
viability, T/C [5]: 16.8%
viability, T/C [6]: 10.4%
viability, T/C [7]: 97.4%
viability, T/C [8]: 92.5%
viability, T/C [9]: 45.8%
viability, T/C [10]: 46%
viability, T/C [11]: 11.4%
viability, T/C [12]: 8.28%
viability, T/C [13]: 122%
viability, T/C [14]: 102%
viability, T/C [15]: 45%
viability, T/C [16]: 29.6%
viability, T/C [17]: 12.6%
viability, T/C [18]: 10.6%
viability, T/C [19]: 111%
viability, T/C [20]: 75.3%
viability, T/C [21]: 54%
viability, T/C [22]: 36.2%
viability, T/C [23]: 15.4%
viability, T/C [24]: 8.43%
viability, T/C [25]: 101%
viability, T/C [26]: 89.2%
viability, T/C [27]: 41.8%
viability, T/C [28]: 36.6%
viability, T/C [29]: 12.5%
viability, T/C [30]: 10%
viability, T/C [31]: 108%
viability, T/C [32]: 72.6%
viability, T/C [33]: 31%
viability, T/C [34]: 35.5%
viability, T/C [35]: 12.5%
viability, T/C [36]: 8.79%

CC1COCCN1c1cc(C2(O)CC3CCC(C2)O3)c2cnn(-c3ccn[nH]3)c2n1 (stereo unspecified) + Cc1cccc(N(C)C(=O)C2C(O)CCN2c2nc(C)cc(C(F)(F)F)c2C#N)c1
pIC50 (second compound 0.0316 µM): 7.02
pIC50 (second compound 0.1 µM): 6.91
pIC50 (second compound 0.316 µM): 7.02
pIC50 (second compound 1 µM): 7.00
pIC50 (second compound 3.16 µM): 7.08
pIC50 (second compound 10 µM): 7.10
viability, T/C [1]: 76.5%
viability, T/C [2]: 49%
viability, T/C [3]: 26.5%
viability, T/C [4]: 19%
viability, T/C [5]: 17.3%
viability, T/C [6]: 17.8%
viability, T/C [7]: 87.8%
viability, T/C [8]: 54.8%
viability, T/C [9]: 27.2%
viability, T/C [10]: 22.5%
viability, T/C [11]: 22.2%
viability, T/C [12]: 16.9%
viability, T/C [13]: 83.6%
viability, T/C [14]: 48.9%
viability, T/C [15]: 28.1%
viability, T/C [16]: 21%
viability, T/C [17]: 18.3%
viability, T/C [18]: 15.2%
viability, T/C [19]: 94.2%
viability, T/C [20]: 49.6%
viability, T/C [21]: 26.1%
viability, T/C [22]: 18%
viability, T/C [23]: 17.4%
viability, T/C [24]: 16.4%
viability, T/C [25]: 85.5%
viability, T/C [26]: 43.4%
viability, T/C [27]: 25.1%
viability, T/C [28]: 18.4%
viability, T/C [29]: 28.6%
viability, T/C [30]: 14%
viability, T/C [31]: 85.6%
viability, T/C [32]: 41.3%
viability, T/C [33]: 24.2%
viability, T/C [34]: 21.8%
viability, T/C [35]: 16.9%
viability, T/C [36]: 15.7%

CC(=O)O[C@H]1C(=O)[C@@]2(C)[C@H]([C@H](OC(=O)c3ccccc3)[C@]3(O)C[C@H](OC(=O)[C@H](O)[C@@H](NC(=O)c4ccccc4)c4ccccc4)C(C)=C1C3(C)C)[C@]1(OC(C)=O)CO[C@@H]1C[C@@H]2O + COC1C(OC(N)=O)C(O)C(Oc2ccc3c(O)c(NC(=O)c4ccc(O)c(CC=C(C)C)c4)c(=O)oc3c2C)OC1(C)C
pIC50 (second compound 0.0316 µM): > 8.02
pIC50 (second compound 0.1 µM): > 8.02
pIC50 (second compound 0.316 µM): > 8.02
pIC50 (second compound 1 µM): > 8.02
pIC50 (second compound 3.16 µM): > 8.02
pIC50 (second compound 10 µM): > 8.02
viability, T/C (second compound 0.0316 µM, first compound 0.00949 µM): 44.6%
viability, T/C (second compound 0.0316 µM, first compound 0.03 µM): 22.1%
viability, T/C (second compound 0.0316 µM, first compound 0.0949 µM): 16.2%
viability, T/C (second compound 0.0316 µM, first compound 0.3 µM): 16.4%
viability, T/C (second compound 0.0316 µM, first compound 0.949 µM): 13.5%
viability, T/C (second compound 0.0316 µM, first compound 3 µM): 19.1%
viability, T/C (second compound 0.1 µM, first compound 0.00949 µM): 41.2%
viability, T/C (second compound 0.1 µM, first compound 0.03 µM): 23.5%
viability, T/C (second compound 0.1 µM, first compound 0.0949 µM): 20.2%
viability, T/C (second compound 0.1 µM, first compound 0.3 µM): 14.9%
viability, T/C (second compound 0.1 µM, first compound 0.949 µM): 13.6%
viability, T/C (second compound 0.1 µM, first compound 3 µM): 17.5%
viability, T/C (second compound 0.316 µM, first compound 0.00949 µM): 36.8%
viability, T/C (second compound 0.316 µM, first compound 0.03 µM): 21.3%
viability, T/C (second compound 0.316 µM, first compound 0.0949 µM): 16.8%
viability, T/C (second compound 0.316 µM, first compound 0.3 µM): 11.9%
viability, T/C (second compound 0.316 µM, first compound 0.949 µM): 13.9%
viability, T/C (second compound 0.316 µM, first compound 3 µM): 16.9%
viability, T/C (second compound 1 µM, first compound 0.00949 µM): 37.8%
viability, T/C (second compound 1 µM, first compound 0.03 µM): 22.4%
viability, T/C (second compound 1 µM, first compound 0.0949 µM): 17.8%
viability, T/C (second compound 1 µM, first compound 0.3 µM): 15.2%
viability, T/C (second compound 1 µM, first compound 0.949 µM): 14%
viability, T/C (second compound 1 µM, first compound 3 µM): 18%
viability, T/C (second compound 3.16 µM, first compound 0.00949 µM): 37.8%
viability, T/C (second compound 3.16 µM, first compound 0.03 µM): 21.1%
viability, T/C (second compound 3.16 µM, first compound 0.0949 µM): 16.2%
viability, T/C (second compound 3.16 µM, first compound 0.3 µM): 15.4%
viability, T/C (second compound 3.16 µM, first compound 0.949 µM): 13.5%
viability, T/C (second compound 3.16 µM, first compound 3 µM): 17.7%
viability, T/C (second compound 10 µM, first compound 0.00949 µM): 45.5%
viability, T/C (second compound 10 µM, first compound 0.03 µM): 23.1%
viability, T/C (second compound 10 µM, first compound 0.0949 µM): 16.2%
viability, T/C (second compound 10 µM, first compound 0.3 µM): 13.2%
viability, T/C (second compound 10 µM, first compound 0.949 µM): 14.3%
viability, T/C (second compound 10 µM, first compound 3 µM): 16.5%
